Values after ≈ are worked out from the molar mass of the structure shown. A value given as a limit tells only on which side of the number the result lay.

For the series the following is noted: for aqueous solubility: pH 6.8.

Compound `COc1ccc(C2(NCc3cnn(-c4ccccc4)c3)CCCC2)cc1` returned an intrinsic clearance, human liver microsomes of 81.5 mL/min/kg; an intrinsic clearance, rat liver microsomes of 976 mL/min/kg; an aqueous solubility of 57.4 µg/mL (≈ 165 µM).

In the case of `Cc1ccc2c(c1)cc(CNCCc1ccccc1)c1nnnn12`, the MDR1-MDCK efflux ratio amounted to 0.45; the intrinsic clearance, human liver microsomes is 417 mL/min/kg; the intrinsic clearance, rat liver microsomes worked out at 1770 mL/min/kg; the aqueous solubility worked out at 24.9 µg/mL (≈ 78.5 µM).

In the case of `Cc1cc(Nc2ccc(F)cn2)cc(C2CCN(C(=O)CCc3cccc(Cl)c3)C2)n1` (stereo not drawn), the MDR1-MDCK efflux ratio came to 9.81; the intrinsic clearance, human liver microsomes was determined as 562 mL/min/kg; the intrinsic clearance, rat liver microsomes is 2270 mL/min/kg.

Compound `CCC1=Nc2c(cnn2-c2cccc(Cl)c2)C2=NCCCN12` gave an aqueous solubility of 53.2 µg/mL (≈ 170 µM).

On to `CN(CCc1ccccc1)C(=O)CC#N`, for which the MDR1-MDCK efflux ratio was found to be 0.666; the intrinsic clearance, human liver microsomes is not above 4.74 mL/min/kg; the intrinsic clearance, rat liver microsomes was not above 10.7 mL/min/kg; the aqueous solubility worked out at 32.5 µg/mL (≈ 161 µM).

`CC#CC(=O)N[C@H]1CCCN(c2c(F)cc(C(N)=O)c3[nH]c(C)c(C)c23)C1`: the MDR1-MDCK efflux ratio amounted to 7.25; the fraction unbound, human plasma came out at 0.0146; the fraction unbound, rat plasma is 0.00229; the intrinsic clearance, human liver microsomes is 25 mL/min/kg. Also, the intrinsic clearance, rat liver microsomes came out at 238 mL/min/kg and the aqueous solubility was found to be 10.8 µg/mL (≈ 29.2 µM).

For the compound `Cc1ccc(NC(=O)CN2C(=O)CN(C)C2=O)cc1C`, the MDR1-MDCK efflux ratio was determined as 3.8; the intrinsic clearance, human liver microsomes was not above 4.74 mL/min/kg; the intrinsic clearance, rat liver microsomes amounted to 62.9 mL/min/kg.

As to `Cc1ccnc(NC(=O)c2ccnc(C)n2)c1`, the intrinsic clearance, human liver microsomes worked out at 137 mL/min/kg and the intrinsic clearance, rat liver microsomes worked out at 569 mL/min/kg.

Regarding `CC(c1ccccc1)N1CC(C(=O)N2CCC(n3c(=O)[nH]c4ccccc43)CC2)CC1=O` (stereo not drawn), the intrinsic clearance, human liver microsomes turned out to be 32.1 mL/min/kg; the intrinsic clearance, rat liver microsomes was 454 mL/min/kg; the aqueous solubility worked out at 71.7 µg/mL (≈ 166 µM).

With `Cc1c(Cl)cccc1NC(=O)C(C)N1CCCN(c2nccs2)CC1` (stereo not drawn), the MDR1-MDCK efflux ratio is 0.958; the intrinsic clearance, human liver microsomes was found to be 928 mL/min/kg; the intrinsic clearance, rat liver microsomes was determined as 4390 mL/min/kg; the aqueous solubility worked out at 48.2 µg/mL (≈ 127 µM).

In turn, `N#Cc1ccc(COc2ccccc2C#N)cc1` came in with an aqueous solubility of 1.71 µg/mL (≈ 7.3 µM).

Turning to `Cc1nccc(-c2cn(Cc3ccccc3)c3cnccc23)n1`, the MDR1-MDCK efflux ratio is 0.675; the fraction unbound, human plasma was determined as 0.133; the fraction unbound, rat plasma was determined as 0.161; the intrinsic clearance, human liver microsomes was determined as 51.4 mL/min/kg. This compound displayed an intrinsic clearance, rat liver microsomes of 2130 mL/min/kg and an aqueous solubility of 33.7 µg/mL (≈ 112 µM).

`Oc1ccc2nc(/C=C/c3csnn3)ccc2c1Cl`: the MDR1-MDCK efflux ratio was 0.069; the intrinsic clearance, human liver microsomes was 99.4 mL/min/kg; the intrinsic clearance, rat liver microsomes came out at 240 mL/min/kg.

For the compound `Cc1cc(CNC(=O)N(C)Cc2c(C)nn(C)c2C)cnc1C`, the MDR1-MDCK efflux ratio came out at 94.1; the intrinsic clearance, human liver microsomes is not above 4.74 mL/min/kg; the intrinsic clearance, rat liver microsomes was 112 mL/min/kg.

On to `C#CCNC(=O)CCc1c(C)nn(C)c1C`, for which the MDR1-MDCK efflux ratio turned out to be 7.96; the intrinsic clearance, human liver microsomes is not above 4.74 mL/min/kg; the intrinsic clearance, rat liver microsomes is not above 10.7 mL/min/kg; the aqueous solubility came out at 60.9 µg/mL (≈ 278 µM).

With `Cc1cc(Oc2ncccn2)ccc1NC(=O)c1c(C)oc(C)c1C`, the MDR1-MDCK efflux ratio turned out to be 0.8; the intrinsic clearance, human liver microsomes is not above 4.74 mL/min/kg; the intrinsic clearance, rat liver microsomes is 122 mL/min/kg; the aqueous solubility stood at 55 µg/mL (≈ 163 µM).

In the case of `Cc1cccc(C(=O)N(C)CCc2cnccn2)c1`, the MDR1-MDCK efflux ratio was determined as 0.8; the intrinsic clearance, human liver microsomes amounted to 13 mL/min/kg; the intrinsic clearance, rat liver microsomes was found to be 141 mL/min/kg; the aqueous solubility worked out at 30.4 µg/mL (≈ 119 µM).

Take `CC(C)(C)c1ccc(CN2CCC(C(N)=O)CC2)cc1`: the MDR1-MDCK efflux ratio came out at 0.975; the intrinsic clearance, human liver microsomes was not above 4.74 mL/min/kg; the intrinsic clearance, rat liver microsomes worked out at 144 mL/min/kg; the aqueous solubility was determined as 47.8 µg/mL (≈ 174 µM).

For `Cc1ccc(CNC(=O)c2cccnc2)n1C`, the MDR1-MDCK efflux ratio was determined as 0.67; the intrinsic clearance, human liver microsomes was not above 4.74 mL/min/kg; the intrinsic clearance, rat liver microsomes is not above 10.7 mL/min/kg; the aqueous solubility was found to be 40.6 µg/mL (≈ 177 µM).

`COc1ccc([C@H]2CN(C(C)=O)[C@@H]3CCCN(Cc4cccc(F)c4)[C@H]23)cc1`: the MDR1-MDCK efflux ratio is 1.35; the fraction unbound, human plasma is 0.0394; the fraction unbound, rat plasma is 0.0393; the intrinsic clearance, human liver microsomes is 176 mL/min/kg. Further, the intrinsic clearance, rat liver microsomes is 1970 mL/min/kg and the aqueous solubility amounted to 45 µg/mL (≈ 118 µM).

Turning to `COc1ccc(-c2nc(C3CCN(C(=O)c4sc(C)nc4C)CC3)[nH]c2C(N)=O)cc1`, the MDR1-MDCK efflux ratio came out at 42.1; the intrinsic clearance, human liver microsomes is not above 4.74 mL/min/kg; the intrinsic clearance, rat liver microsomes is 39.4 mL/min/kg; the aqueous solubility was found to be 61.8 µg/mL (≈ 141 µM).

Compound `CCOc1ccccc1NC(=O)C(=O)NCc1ccccc1F` returned an aqueous solubility of 0.34 µg/mL (≈ 1.07 µM).

Regarding `Cc1nn(C)c(C)c1CCC(=O)N1CCN(C)Cc2ccccc21`, the MDR1-MDCK efflux ratio was 45.8; the intrinsic clearance, human liver microsomes stood at 74.2 mL/min/kg; the intrinsic clearance, rat liver microsomes worked out at 279 mL/min/kg; the aqueous solubility amounted to 53 µg/mL (≈ 162 µM).

As to `C[C@H]1O[C@@H](Oc2c(-c3cc(O)c(O)c(O)c3)oc3cc(O)cc(O)c3c2=O)[C@@H](O)[C@H](O)[C@H]1O`, the intrinsic clearance, human liver microsomes is not above 4.74 mL/min/kg and the intrinsic clearance, rat liver microsomes was not above 10.7 mL/min/kg.

In the case of `CC(C)(O)CCn1cc2cc(NC(=O)c3cccc(C(F)(F)F)n3)c(C(C)(C)O)cc2n1`, the MDR1-MDCK efflux ratio stood at 10.2; the fraction unbound, human plasma was found to be 0.104; the fraction unbound, rat plasma amounted to 0.124; the intrinsic clearance, human liver microsomes is 9.92 mL/min/kg. The compound further displayed an intrinsic clearance, rat liver microsomes of 42.6 mL/min/kg.

Take `CCOC(=O)c1ccc(S(=O)(=O)N2CCc3cc(C(=O)OC)ccc32)cc1`: the aqueous solubility was determined as 0.83 µg/mL (≈ 2.13 µM).

`CCCC(=O)Nc1ccc(C(=O)N(C)C)cc1`: the MDR1-MDCK efflux ratio was determined as 1.41; the intrinsic clearance, human liver microsomes was 22.2 mL/min/kg; the intrinsic clearance, rat liver microsomes was found to be 50.7 mL/min/kg.

For the compound `Cc1ccc(OCN2CCCCC2=O)nc1`, the MDR1-MDCK efflux ratio stood at 2.63; the intrinsic clearance, human liver microsomes was 5.26 mL/min/kg; the intrinsic clearance, rat liver microsomes is not above 10.7 mL/min/kg.

As for `Cc1cc(C(=O)NCC2CC2)n2nccc2n1`, the MDR1-MDCK efflux ratio turned out to be 0.576; the intrinsic clearance, human liver microsomes was determined as 25.7 mL/min/kg; the intrinsic clearance, rat liver microsomes amounted to 74.9 mL/min/kg; the aqueous solubility was 50.4 µg/mL (≈ 219 µM).

With `O=c1cc(-c2cc(F)c(Cl)nc2Cl)[nH]c2c(-c3ccccc3)c(C(F)(F)F)nn12`, the MDR1-MDCK efflux ratio was 1.91; the intrinsic clearance, human liver microsomes was not above 4.74 mL/min/kg; the intrinsic clearance, rat liver microsomes turned out to be 19.4 mL/min/kg.

In the case of `CCOc1ccc(CN[C@@H]2CCC[C@H]2Cc2cc(C)no2)cc1OC`, the MDR1-MDCK efflux ratio was found to be 2.55; the intrinsic clearance, human liver microsomes stood at 61.6 mL/min/kg; the intrinsic clearance, rat liver microsomes stood at 2220 mL/min/kg.

The compound `CN(Cc1c(F)cccc1Cl)C(=O)C1(C#N)CCCC1` had an intrinsic clearance, human liver microsomes of 111 mL/min/kg; an intrinsic clearance, rat liver microsomes of 1250 mL/min/kg; an aqueous solubility of 35.2 µg/mL (≈ 120 µM).

As usually defined, the aqueous solubility is the concentration that dissolves in the medium under given conditions.

Source of the values: the Biogen ADME set (Fang et al. 2023).
